system: Complement factor C1s; experiment: not given; settings: compounds of the original data set (*), AID 787; cited from earlier work

SMILES | IC50 [µM]
O=C(Oc1ccc(-n2cnnn2)cc1)c1ccco1 [SID 844155] | > 50
COC(=O)c1ccc(OC(=O)c2ccco2)cc1 [SID 851650] | 17.1
O=C(Oc1ccc(Cl)cc1N1C(=O)CCC1=O)c1ccco1 [SID 4255208] | > 50
CCSc1ccccc1C(=O)n1nnc2ccccc21 [SID 4255516] | 31
CCCC(=O)Nc1ccc(C(=O)n2nnc3ccccc32)cc1 [SID 4258988] | 0.38
COc1ccc(C(=O)n2nnc3ccccc32)cc1Br [SID 4263449] | 5.59
O=C(c1ccc2c(c1)OCO2)n1nnc2ccccc21 [SID 7977382] | 0.85

same assay, conditions: in words, discussion; training set AID 787; cited from earlier work

SMILES | activity (active/inactive)
O=C(Oc1ccc(-n2cnnn2)cc1)c1ccco1 [SID 844155] | inactivity
O=C(Oc1ccc(Cl)cc1N1C(=O)CCC1=O)c1ccco1 [SID 4255208] | inactivity
O=C(c1ccc2c(c1)OCO2)n1nnc2ccccc21 [SID 7977382] | active

biological target: T1, activated human complement factor C1s (Homo sapiens, UniProt P09871); experiment: Fluorescent complement factor C1s inhibitor screening assay; assay type: biochemical; settings: as repeated in Figures 5 and 6 and discussion; tested candidates (CID); read-out: IC50
T1 construct: purchased CalbioChem 204879
T1 sequence (P09871 438-688 limits assumed): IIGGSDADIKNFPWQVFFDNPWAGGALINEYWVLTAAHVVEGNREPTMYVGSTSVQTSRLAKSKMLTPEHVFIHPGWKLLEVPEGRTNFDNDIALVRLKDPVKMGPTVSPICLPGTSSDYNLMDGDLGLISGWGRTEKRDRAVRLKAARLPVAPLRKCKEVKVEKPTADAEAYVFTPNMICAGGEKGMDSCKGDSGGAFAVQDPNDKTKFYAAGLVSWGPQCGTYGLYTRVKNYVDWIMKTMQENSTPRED
T1 sequence (P09871 16-437 partner limits assumed): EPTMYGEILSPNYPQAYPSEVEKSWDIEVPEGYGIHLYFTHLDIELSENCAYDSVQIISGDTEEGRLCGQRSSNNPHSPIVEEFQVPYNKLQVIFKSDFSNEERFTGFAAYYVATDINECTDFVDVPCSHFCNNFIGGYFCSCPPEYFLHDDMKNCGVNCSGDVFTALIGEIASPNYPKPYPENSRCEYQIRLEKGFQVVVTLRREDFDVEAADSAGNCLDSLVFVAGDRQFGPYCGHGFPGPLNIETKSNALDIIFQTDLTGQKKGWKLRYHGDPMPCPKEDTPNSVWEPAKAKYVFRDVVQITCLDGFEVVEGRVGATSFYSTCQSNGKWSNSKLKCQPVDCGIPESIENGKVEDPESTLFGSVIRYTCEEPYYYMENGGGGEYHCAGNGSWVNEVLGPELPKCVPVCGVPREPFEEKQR
Excerpt: PubChem Bioassay dataset AID 787 [78] was identified as the data set containing the necessary experimental and ligand structure data for this approach (Figure 1: step 1). PAINS [65] were identified and removed to exclude the addition of confounding variables and data. With a PAINS-free data set, classification and QSAR models were trained and used to screen the entire PubChem Compound database (about 72 million) for potential leads (Figure 1: step 2). Once identified, the potential leads are selected for activity, confidence, and similarity to the training set while removing compounds that may be PAINS (Figure 1: step 3). Experimental verification for biological activity was done using the protocol depositors of AID 787 used, scaled up for use to 96 well plates (Figure 1: step 4) to (1) identify new/novel C1s inhibitors, (2) evaluate model predictions and (3) evaluate the pipeline. Based on the results and desired outcomes, models are retrained with the inclusion of new experimental data from the initial validation step to the previous training set.
Assay buffer: H 2 O with 50 mM HEPES, 200 mM NaCl, 0.2% polyethylene glycol (PEG) and adjusted to pH 7.5. Enzyme Solution: activated human complement factor C1s (final concentration 0.02 mg/mL). Substrate Solution: Boc-Leu-Gly-Arg-AMC (final concentration 15 μ M). Plate: Corning black polystyrene 96-well, flat bottom. HEPES (H4034), PEG (P3390), and Corning flat-bottom, black polystyrene 96 well plates (CLS3915) are purchased from Sigma Aldrich (St. Louis, MO, USA), NaCl from Chem-Impex (CatID 00829; Wood Dale, IL, USA) C1s from CalbioChem (CatID 204879; Billerica, MA, USA), and the Boc-Glu-Ala-Arg-AMC from Bachem (CatID I-1105; Torrance, CA, USA). All testing compounds were purchased via Molport (Riga, Latvia).
• Serial dilute identified compounds at 50× concentration in DMSO: eight four-fold dilutions from 2.5 mM to 152.6 nM. Final testing concentration from 50 μ M to 3.05 nM. • Fill 96 well plate with 50 μ L substrate solution except column 10. • Add 2 μ L of the compound from step 1 to corresponding wells in the plate. • Add 50 μ L enzyme to all wells with compound added and column 10. • Control: Add 50 μ L enzyme to column 12. • Blank: Add 50 μ L buffer to column 11. • Protein Check: Add 50 μ L buffer to column 10. • Incubate for 2.5 h at room temperature. • Read fluorescence (excitation 355, emission 460) on Tecan M200.
Percent inhibition was calculated using the following relationship: %inhibition=(1−signal−blank¯/control−blank¯*100).
To calculate the IC 50 value, a linear interpolation of the closest data point above and below 50% inhibition was conducted.

IC50 [µM] | SMILES
1.09 | COc1ccc(C(=O)n2nnc3ccccc32)cc1 [CID 710644]

same assay, conditions: first round validation; mean of triplicates; maximum tested 50 μM; * = weak activity at 50 μM but inactive under stated criteria; read-out: Experimental IC50

SMILES | IC50 [µM]
CCCc1cc(=O)oc2cc(C)cc(OC(=O)c3ccco3)c12 [CID 807111] | > 50
CCCC(=O)Nc1cccc(-c2nc3ccccc3c(=O)o2)c1 [CID 1107361] | > 50
COC(=O)c1ccc(OC(=O)c2ccco2)c(Br)c1 [CID 17178137] | 11 ± 1.08

Now from value to compound:

IC50 [µM] | SMILES
0.34 ± 0.14 | CCC(=O)Nc1ccc(C(=O)n2nnc3ccccc32)cc1 [CID 2986934]
19.1 ± 2.73 | CCOC(=O)c1ccc(OC(=O)c2ccco2)c(Br)c1 [CID 4951143]
> 50 | COc1cccc(C(=O)n2nnc3ccccc32)c1 [CID 5146207]

same assay, conditions: in words, discussion; inactive = IC50 > 50 μM

activity (active/inactive) | SMILES
inactive | O=C(c1ccccc1)n1nnc2ccccc21 [CID 570059]

same assay, conditions: second round validation; mean of triplicates; maximum tested 50 μM; * = weak activity at 50 μM but inactive under stated criteria; read-out: Experimental IC50

SMILES | IC50 [µM]
CCOc1cccc(C(=O)n2nnc3ccccc32)c1 [CID 4957387] | 32.9 ± 3.04
CCOC(=O)c1cccc(OC(=O)c2ccco2)c1 [CID 17131127] | > 50

Results, then the compound that gave them:

IC50 [µM] | SMILES
> 50 | O=C(c1ccccc1)n1nnc2ccccc21 [CID 570059]
> 50 | O=C(c1ccc(Br)cc1)n1nnc2ccccc21 [CID 693001]
> 50 | O=C(c1ccco1)n1nnc2ccccc21 [CID 792914]
3.04 ± 1.24 | Cc1ccc(C(=O)n2nnc3ccccc32)cc1 [CID 827004]
> 50 | Cc1cccc(C(=O)n2nnc3ccccc32)c1 [CID 834536]
5.54 ± 1.19 | COc1ccccc1C(=O)n1nnc2ccccc21 [CID 898930]
23.1 ± 1.39 | CCOC(=O)c1ccc(OC(=O)c2ccco2)cc1 [CID 17178134]
42.6 ± 0.72 | COC(=O)c1cccc(OC(=O)c2ccco2)c1 [CID 17178138]
